Experiments:
DDR2 = target: T1, DDR2 (Homo sapiens, UniProt Q16832); test: Off-chip Mobility Shift Assay, kinase inhibition; format: biochemical; settings: at 10 nM; recombinant DDR2; read-out: inhibition
T1 construct: purchased Carna Biosciences, Inc
T1 sequence (Q16832 22-855): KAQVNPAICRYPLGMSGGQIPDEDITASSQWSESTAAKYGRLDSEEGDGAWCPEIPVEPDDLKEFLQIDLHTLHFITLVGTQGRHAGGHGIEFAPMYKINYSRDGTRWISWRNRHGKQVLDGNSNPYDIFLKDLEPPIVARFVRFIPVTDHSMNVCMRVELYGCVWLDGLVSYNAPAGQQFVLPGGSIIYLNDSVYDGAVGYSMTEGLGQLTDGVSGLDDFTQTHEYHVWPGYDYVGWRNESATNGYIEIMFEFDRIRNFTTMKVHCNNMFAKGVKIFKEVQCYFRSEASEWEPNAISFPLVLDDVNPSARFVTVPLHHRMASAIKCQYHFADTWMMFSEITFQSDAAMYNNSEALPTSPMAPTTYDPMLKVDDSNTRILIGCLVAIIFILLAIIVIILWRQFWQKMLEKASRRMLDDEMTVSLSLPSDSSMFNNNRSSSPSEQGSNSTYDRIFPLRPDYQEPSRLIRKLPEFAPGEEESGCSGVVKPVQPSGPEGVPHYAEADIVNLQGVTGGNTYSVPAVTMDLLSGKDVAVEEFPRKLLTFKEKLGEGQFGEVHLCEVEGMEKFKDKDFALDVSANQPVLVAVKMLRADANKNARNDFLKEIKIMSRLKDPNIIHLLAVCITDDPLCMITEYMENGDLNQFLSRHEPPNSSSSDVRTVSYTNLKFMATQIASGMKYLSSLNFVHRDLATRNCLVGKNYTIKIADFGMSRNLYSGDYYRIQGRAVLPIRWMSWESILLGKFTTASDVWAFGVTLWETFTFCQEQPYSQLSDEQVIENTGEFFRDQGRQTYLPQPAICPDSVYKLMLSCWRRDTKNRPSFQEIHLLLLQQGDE

FGR = target: T2, FGR (Homo sapiens, UniProt P09769); test: Off-chip Mobility Shift Assay, kinase inhibition; format: biochemical; settings: at 10 nM; recombinant FGR; read-out: inhibition
T2 construct: purchased Carna Biosciences, Inc

SRC = target: T3, SRC (Homo sapiens, UniProt P12931); test: Off-chip Mobility Shift Assay, kinase inhibition; format: biochemical; settings: recombinant SRC
T3 construct: purchased Carna Biosciences, Inc

PIK3CA/PIK3R1 = target: T4, PIK3CA/PIK3R1 (Homo sapiens, UniProt P42336); test: Off-chip Mobility Shift Assay, kinase inhibition; format: biochemical; settings: at 10 nM; recombinant PIK3CA/PIK3R1
T4 construct: purchased Carna Biosciences, Inc

PDGFRβ = target: T5, PDGFRβ (Homo sapiens, UniProt P09619); test: Off-chip Mobility Shift Assay, kinase inhibition; format: biochemical; settings: at 10 nM; recombinant PDGFRβ; read-out: inhibition
T5 construct: purchased Carna Biosciences, Inc

BTK = target: T6, BTK (Homo sapiens, UniProt Q06187); test: Off-chip Mobility Shift Assay, kinase inhibition; format: biochemical; settings: recombinant BTK
T6 construct: purchased Carna Biosciences, Inc

FYN(isoform a) = target: T7, FYN(isoform a) (Homo sapiens, UniProt P06241); test: Off-chip Mobility Shift Assay, kinase inhibition; format: biochemical; settings: at 10 nM; recombinant FYN(isoform a)
T7 construct: purchased Carna Biosciences, Inc

FMS = target: T8, FMS (Homo sapiens, UniProt P07333); test: Off-chip Mobility Shift Assay, kinase inhibition; format: biochemical; settings: at 10 nM; recombinant FMS
T8 construct: purchased Carna Biosciences, Inc

EPHA1 = target: T9, EPHA1 (Homo sapiens, UniProt P21709); test: Off-chip Mobility Shift Assay, kinase inhibition; format: biochemical; settings: at 10 nM; recombinant EPHA1
T9 construct: purchased Carna Biosciences, Inc
T9 sequence (P21709 26-976): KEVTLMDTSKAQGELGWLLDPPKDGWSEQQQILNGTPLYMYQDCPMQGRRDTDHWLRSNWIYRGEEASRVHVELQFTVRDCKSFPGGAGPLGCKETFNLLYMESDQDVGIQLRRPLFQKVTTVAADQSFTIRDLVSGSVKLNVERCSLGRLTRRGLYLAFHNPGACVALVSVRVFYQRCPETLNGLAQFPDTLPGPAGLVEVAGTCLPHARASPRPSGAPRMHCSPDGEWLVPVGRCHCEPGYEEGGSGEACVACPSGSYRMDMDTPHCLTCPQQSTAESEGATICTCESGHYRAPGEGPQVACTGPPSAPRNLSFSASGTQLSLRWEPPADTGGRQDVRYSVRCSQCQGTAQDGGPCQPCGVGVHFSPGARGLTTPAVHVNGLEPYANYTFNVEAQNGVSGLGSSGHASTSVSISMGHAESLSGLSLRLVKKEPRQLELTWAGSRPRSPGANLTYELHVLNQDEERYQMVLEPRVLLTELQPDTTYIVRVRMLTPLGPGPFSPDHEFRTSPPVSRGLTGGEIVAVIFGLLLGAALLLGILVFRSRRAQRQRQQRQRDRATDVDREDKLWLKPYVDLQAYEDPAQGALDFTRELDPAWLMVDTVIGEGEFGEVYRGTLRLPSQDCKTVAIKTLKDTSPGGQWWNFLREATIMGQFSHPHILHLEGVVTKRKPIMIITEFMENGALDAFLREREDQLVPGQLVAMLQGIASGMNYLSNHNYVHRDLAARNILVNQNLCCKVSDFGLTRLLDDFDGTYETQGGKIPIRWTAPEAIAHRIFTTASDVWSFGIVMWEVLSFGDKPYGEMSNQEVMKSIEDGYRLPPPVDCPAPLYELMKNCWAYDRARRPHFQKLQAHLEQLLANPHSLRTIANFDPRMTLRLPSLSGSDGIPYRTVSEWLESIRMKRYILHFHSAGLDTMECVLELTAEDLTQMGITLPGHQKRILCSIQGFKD

FRK = target: T10, FRK (Homo sapiens, UniProt P42685); test: Off-chip Mobility Shift Assay, kinase inhibition; format: biochemical; settings: at 10 nM; recombinant FRK
T10 construct: purchased Carna Biosciences, Inc

ARG = target: T11, ARG (Homo sapiens, UniProt P42684); test: Off-chip Mobility Shift Assay, kinase inhibition; format: biochemical; settings: at 10 nM; recombinant ARG; read-out: inhibition
T11 construct: purchased Carna Biosciences, Inc

HCK = target: T12, HCK (Homo sapiens, UniProt P08631); test: Off-chip Mobility Shift Assay, kinase inhibition; format: biochemical; settings: recombinant HCK
T12 construct: purchased Carna Biosciences, Inc

ABL(E255K) = target: T13, ABL(E255K) (Homo sapiens, UniProt P00519, E255K); test: Off-chip Mobility Shift Assay, kinase inhibition; format: biochemical; settings: recombinant ABL(E255K)
T13 construct: purchased Carna Biosciences, Inc

LCK = target: T14, LCK (Homo sapiens, UniProt P06239); test: Off-chip Mobility Shift Assay, kinase inhibition; format: biochemical; settings: recombinant LCK
T14 construct: purchased Carna Biosciences, Inc

SU-DHL-4 = test: Cell inhibition assay (PrestoBlue, 48 h); format: cell-based; settings: Homo sapiens, SU-DHL-4, 48 h, SU-DHL-4 diffuse large B-cell lymphoma cells, read-out: IC50, inhibition of growth

T12 sequence (P08631 whole entry): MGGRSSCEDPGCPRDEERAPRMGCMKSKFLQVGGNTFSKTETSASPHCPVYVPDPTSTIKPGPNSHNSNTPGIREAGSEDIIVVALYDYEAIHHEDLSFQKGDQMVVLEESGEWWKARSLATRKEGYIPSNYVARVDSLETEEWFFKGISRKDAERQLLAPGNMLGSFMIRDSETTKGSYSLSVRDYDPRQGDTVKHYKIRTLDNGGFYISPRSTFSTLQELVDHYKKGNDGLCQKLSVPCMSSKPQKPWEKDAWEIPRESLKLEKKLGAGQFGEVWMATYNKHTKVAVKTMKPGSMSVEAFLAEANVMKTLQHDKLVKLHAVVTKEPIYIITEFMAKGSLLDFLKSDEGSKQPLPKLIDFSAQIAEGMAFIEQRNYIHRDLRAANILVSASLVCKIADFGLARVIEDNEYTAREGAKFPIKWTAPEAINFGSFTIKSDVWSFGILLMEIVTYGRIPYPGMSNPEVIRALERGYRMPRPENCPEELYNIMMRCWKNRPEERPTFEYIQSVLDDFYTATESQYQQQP
T6 sequence (Q06187 whole entry): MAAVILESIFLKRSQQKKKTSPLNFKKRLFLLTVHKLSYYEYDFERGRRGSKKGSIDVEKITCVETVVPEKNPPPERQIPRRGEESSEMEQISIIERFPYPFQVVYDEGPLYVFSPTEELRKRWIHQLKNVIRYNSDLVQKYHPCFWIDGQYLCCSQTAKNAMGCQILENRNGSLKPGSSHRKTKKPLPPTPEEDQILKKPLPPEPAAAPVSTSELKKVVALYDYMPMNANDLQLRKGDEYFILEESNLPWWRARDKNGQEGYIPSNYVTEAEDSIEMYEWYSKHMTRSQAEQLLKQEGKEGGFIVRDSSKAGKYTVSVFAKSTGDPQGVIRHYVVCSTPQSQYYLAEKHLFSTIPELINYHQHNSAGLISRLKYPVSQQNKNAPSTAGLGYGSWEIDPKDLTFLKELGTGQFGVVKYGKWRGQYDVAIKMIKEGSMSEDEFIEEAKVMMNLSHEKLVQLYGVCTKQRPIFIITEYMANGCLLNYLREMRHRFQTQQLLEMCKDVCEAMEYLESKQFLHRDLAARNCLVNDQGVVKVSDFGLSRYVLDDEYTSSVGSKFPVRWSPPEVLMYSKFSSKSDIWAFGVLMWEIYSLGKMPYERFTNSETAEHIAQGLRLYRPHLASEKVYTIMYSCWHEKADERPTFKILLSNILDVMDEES
T14 sequence (P06239 whole entry): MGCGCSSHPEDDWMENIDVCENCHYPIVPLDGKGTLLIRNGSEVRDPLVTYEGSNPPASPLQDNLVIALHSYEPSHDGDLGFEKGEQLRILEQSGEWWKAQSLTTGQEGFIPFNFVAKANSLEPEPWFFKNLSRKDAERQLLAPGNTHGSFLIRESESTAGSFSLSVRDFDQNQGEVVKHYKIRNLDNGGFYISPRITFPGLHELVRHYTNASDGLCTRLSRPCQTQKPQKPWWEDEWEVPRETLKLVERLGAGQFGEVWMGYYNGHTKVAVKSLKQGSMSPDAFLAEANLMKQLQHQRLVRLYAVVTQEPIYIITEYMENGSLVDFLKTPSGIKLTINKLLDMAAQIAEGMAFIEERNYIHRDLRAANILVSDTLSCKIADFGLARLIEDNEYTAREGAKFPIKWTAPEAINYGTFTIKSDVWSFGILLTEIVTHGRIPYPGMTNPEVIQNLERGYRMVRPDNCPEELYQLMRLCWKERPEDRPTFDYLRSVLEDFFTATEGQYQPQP
T3 sequence (P12931 whole entry): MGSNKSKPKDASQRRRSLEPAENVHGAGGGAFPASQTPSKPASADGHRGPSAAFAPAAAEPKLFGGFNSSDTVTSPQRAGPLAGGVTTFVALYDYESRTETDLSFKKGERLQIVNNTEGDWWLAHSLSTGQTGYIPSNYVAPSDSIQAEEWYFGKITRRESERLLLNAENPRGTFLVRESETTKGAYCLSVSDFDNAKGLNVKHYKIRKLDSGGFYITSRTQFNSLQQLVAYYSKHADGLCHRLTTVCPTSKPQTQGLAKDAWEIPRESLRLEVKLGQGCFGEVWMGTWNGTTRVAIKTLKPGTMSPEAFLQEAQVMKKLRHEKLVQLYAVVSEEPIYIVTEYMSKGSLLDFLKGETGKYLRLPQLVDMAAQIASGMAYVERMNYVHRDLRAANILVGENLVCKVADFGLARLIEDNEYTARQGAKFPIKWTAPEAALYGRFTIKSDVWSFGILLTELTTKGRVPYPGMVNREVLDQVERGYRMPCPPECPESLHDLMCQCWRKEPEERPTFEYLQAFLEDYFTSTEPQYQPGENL
T13 sequence (P00519 whole entry E255K): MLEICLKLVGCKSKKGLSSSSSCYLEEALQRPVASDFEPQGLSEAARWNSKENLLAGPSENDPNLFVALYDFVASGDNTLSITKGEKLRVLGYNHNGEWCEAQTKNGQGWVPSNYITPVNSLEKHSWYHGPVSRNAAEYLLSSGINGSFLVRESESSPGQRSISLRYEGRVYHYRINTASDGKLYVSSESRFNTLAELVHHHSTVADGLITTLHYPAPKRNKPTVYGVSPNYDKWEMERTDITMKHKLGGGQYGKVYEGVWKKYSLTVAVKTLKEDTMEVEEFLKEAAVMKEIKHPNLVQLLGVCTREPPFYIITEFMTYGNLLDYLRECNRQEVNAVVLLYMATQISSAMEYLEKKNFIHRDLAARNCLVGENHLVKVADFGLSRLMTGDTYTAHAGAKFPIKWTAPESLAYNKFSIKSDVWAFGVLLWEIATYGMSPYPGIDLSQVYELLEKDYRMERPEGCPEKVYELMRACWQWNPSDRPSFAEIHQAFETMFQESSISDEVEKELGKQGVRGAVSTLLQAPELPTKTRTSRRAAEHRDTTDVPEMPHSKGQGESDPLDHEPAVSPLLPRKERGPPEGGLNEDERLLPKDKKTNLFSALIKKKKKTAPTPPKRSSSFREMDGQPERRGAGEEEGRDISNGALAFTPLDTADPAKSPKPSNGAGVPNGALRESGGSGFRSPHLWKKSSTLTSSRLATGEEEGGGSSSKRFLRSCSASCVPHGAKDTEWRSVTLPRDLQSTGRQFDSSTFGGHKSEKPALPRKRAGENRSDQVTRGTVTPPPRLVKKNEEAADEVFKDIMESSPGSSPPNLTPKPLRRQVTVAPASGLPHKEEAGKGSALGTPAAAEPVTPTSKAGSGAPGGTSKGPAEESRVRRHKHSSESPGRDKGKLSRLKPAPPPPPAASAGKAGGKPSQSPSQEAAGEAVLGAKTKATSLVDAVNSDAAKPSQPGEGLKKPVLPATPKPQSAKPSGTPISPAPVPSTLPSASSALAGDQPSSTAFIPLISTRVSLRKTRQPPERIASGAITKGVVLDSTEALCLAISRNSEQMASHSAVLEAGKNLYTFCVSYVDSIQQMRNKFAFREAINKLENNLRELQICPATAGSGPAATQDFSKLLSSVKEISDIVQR
T11 sequence (P42684 whole entry): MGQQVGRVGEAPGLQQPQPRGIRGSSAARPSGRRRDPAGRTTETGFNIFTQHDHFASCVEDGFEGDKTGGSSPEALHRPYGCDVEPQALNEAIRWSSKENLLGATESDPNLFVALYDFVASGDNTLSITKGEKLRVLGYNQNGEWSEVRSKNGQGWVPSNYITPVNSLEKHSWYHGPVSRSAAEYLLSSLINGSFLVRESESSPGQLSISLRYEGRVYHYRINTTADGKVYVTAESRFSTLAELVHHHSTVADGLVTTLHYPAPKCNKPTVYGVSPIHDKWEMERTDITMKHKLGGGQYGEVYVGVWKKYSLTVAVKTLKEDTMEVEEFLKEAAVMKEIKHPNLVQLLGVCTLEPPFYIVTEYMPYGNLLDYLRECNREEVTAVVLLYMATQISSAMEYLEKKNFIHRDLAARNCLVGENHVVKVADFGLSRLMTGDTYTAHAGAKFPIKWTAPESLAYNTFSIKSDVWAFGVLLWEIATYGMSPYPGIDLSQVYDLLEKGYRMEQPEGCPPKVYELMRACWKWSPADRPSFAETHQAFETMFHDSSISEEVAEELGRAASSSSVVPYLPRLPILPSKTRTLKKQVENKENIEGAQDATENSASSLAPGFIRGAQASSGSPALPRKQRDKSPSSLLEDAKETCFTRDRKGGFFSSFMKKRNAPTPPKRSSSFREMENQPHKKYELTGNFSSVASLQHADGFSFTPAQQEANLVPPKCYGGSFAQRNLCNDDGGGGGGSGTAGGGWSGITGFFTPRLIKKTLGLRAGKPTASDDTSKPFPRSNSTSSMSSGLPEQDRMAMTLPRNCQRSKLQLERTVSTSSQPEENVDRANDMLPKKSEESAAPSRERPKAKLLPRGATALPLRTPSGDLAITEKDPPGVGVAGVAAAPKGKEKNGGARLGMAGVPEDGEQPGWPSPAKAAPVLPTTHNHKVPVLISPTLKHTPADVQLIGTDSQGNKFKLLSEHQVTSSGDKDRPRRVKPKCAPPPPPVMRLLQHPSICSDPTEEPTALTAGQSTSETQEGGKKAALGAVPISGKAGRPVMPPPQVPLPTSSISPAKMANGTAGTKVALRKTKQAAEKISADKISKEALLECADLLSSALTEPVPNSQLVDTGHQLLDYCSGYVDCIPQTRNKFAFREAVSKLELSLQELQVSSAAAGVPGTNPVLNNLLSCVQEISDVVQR
T10 sequence (P42685 whole entry): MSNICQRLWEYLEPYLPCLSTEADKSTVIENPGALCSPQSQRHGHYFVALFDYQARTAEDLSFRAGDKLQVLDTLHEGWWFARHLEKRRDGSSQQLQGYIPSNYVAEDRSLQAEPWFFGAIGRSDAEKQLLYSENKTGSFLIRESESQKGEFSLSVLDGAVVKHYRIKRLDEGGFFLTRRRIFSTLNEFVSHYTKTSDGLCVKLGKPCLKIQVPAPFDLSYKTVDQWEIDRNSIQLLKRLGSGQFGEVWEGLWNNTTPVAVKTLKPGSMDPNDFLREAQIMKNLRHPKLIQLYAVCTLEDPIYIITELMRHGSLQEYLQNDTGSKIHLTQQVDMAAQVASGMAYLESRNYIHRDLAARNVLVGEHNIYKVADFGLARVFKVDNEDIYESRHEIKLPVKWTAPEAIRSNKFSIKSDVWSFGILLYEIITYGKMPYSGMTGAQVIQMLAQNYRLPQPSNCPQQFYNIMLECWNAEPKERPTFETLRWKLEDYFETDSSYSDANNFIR

Structure (SMILES): Cc1nc(Nc2ncc(C(=O)Nc3c(C)cccc3Cl)s2)cc(N2CC[C@@H](N)C2)n1 [Compound XIII, N-(2-chloro-6-methylphenyl)-2-[[2-methyl-6-((R)-3-aminopyrrolidin-1-yl)pyrimidin-4-yl]amino]thiazole-5-carboxamide]
- inhibition at 0.01 µM (DDR2): > 50%
- inhibition at 0.01 µM (FGR): > 50%
- inhibition at 0.001 µM (SRC; at 1 nM): > 50%
- inhibition at 0.01 µM (SRC; at 10 nM): > 50%
- inhibition at 0.01 µM (PIK3CA/PIK3R1): > 50%
- inhibition at 0.01 µM (PDGFRβ): > 50%
- inhibition at 0.001 µM (BTK; at 1 nM): > 50%
- inhibition at 0.01 µM (BTK; at 10 nM): > 50%
- inhibition at 0.01 µM (FYN(isoform a)): > 50%
- inhibition at 0.01 µM (FMS): > 50%
- inhibition at 0.01 µM (EPHA1): > 50%
- inhibition at 0.01 µM (FRK): > 50%
- inhibition at 0.01 µM (ARG): > 50%
- inhibition at 0.001 µM (HCK; at 1 nM): > 50%
- inhibition at 0.01 µM (HCK; at 10 nM, read-out: inhibition): > 50%
- inhibition at 0.001 µM (ABL(E255K); at 1 nM): > 50%
- inhibition at 0.01 µM (ABL(E255K); at 10 nM): > 50%
- inhibition at 0.001 µM (LCK; at 1 nM): > 50%
- inhibition at 0.01 µM (LCK; at 10 nM): > 50%
- IC50 (SU-DHL-4): < 20 nM
